Here are results for 15 molecules from patent US20260151403A1, “NEK7 DEGRADERS AND METHODS OF USE THEREOF” (Captor Therapeutics S.A., priority 2022, published 2026).

Assay [1] has as its target NEK7-HiBiT protein (Homo sapiens, UniProt Q8TDX7). Description: NEK7-HiBiT degradation assay (Nano-Glo HiBiT Lytic Assay) in HEK293 NEK7-HiBiT cells. It is filed as cell-based. Particulars: 24 h, conc. 0.1, 1 and 10 μM tested, concentration of the table values not stated, mean of 3 technical replicates. On the procedure:
HEK293 NEK7-HiBiT cells were generated using CRISPR-Cas9 system. HEK293 cells were transformed with pSpCas9-BB-2A-Puro v2.0 plasmid carrying gRNA targeting the N-terminus of NEK7 and ssODN template containing the HiBiT tag sequence with flanking homology sequences. Neon Transfection System (Thermo Fisher Scientific) was used for electroporation. HEK293 NEK7-HiBiT cells were cultured with DMEM Glutamax (Gibco) supplemented with 10% heat inactivated FBS (Gibco). After transfection the culture medium was changed to DMEM Glutamax with 10% heat-inactivated FBS and 1% Penicillin-Streptomycin (Biowest) supplemented with Puromycin (2 μg/ml; Invivogen) for clonal selection. In order to isolate single cell clones for further validation and analysis, limiting dilution cloning in 96-well plates was performed. When the single clones reached confluency, HiBiT Lytic Assay (Promega) was performed in order to identify HiBiT positive clones. The clone selected for further studies was verified and validated using genotyping and HiBiT Blotting (Promega).
Selected clone of HEK293 NEK7-HiBiT cells was maintained in the DMEM-Glutamax medium supplemented with 10% of heat-inactivated FBS (Gibco) and 1% of Penicillin-Streptomycin Solution 100x (Biowest) at 37° C., 5% CO2 and subcultured every 2-3 days.
For Nano-Glo HiBiT Lytic Assay HEK293 NEK7-HiBiT cells were seeded at the density 2×10^3 cells in triplicates in the 40 μL of growth medium per single well on 384 well plate (Greiner Bio-One). Compounds or DMSO were added to treatment plates using Echo555 Liquid Handler and incubated at 37° C., 5% CO2 for 24 hours. After incubation 40 μL of Nano-Glo HiBiT Lytic Reagent (prepared according to the manufacturer protocol) were added to 40 μL of the cell culture medium present in each well. The plate content was briefly mixed (460 rpm) on an orbital shaker to ensure cell lysis. The plate was left at RT protected from light for another 10 min to stabilize the luminescent signal. The luminescence signal was measured using CLARIOstar Multimode Plate Reader. Focus and gain were adjusted to DMSO treated cells. The results were calculated as the NEK7-HiBiT % relative to the DMSO control of 3 technical replicates relative to the DMSO control.
HEK293 NEK7-HiBiT cells were treated with the compounds (conc. 0.1, 1 and 10 μM) or DMSO for 24 h. After incubation with compounds NEK7-HiBiT degradation was measured as a luminescence signal using CLARIOstar Multimode Plate reader.
Additionally, compounds reducing NEK7-HiBiT protein level by >=50% at 0.1 μM, were also identified.
Background: The HiBiT peptide binds its large partner to form an active luciferase.

Assay [2] deals with T1, [NEK7]-[compound of formula (I)]-[CRBN/DDB1] complex (Homo sapiens, UniProt Q8TDX7+Q96SW2). Description: HTRF ternary complex assay. It is filed as binding. To be noted: dose-response, 180 min at 25° C.; read-out: HTRF ternary complex Average pEC50 by molecule (converted). On the procedure:
The effect of the molecular glue compounds of the invention on the formation of a ternary complex composed of [NEK7]-[compound of formula (I)]-[CRBN/DDB1] was investigated.
Mix solution of proteins and reagents was prepared: • 24 nM NEK7, 52.8 nM 6×His-CRBN/Strep-DDB1, 3 nM of Streptavidin-Eu cryptate […] and 6.67 nM of Anti-6×his-d2 […] was prepared in PPI Europium detection buffer (Cisbio) with 1 mM DTT.
The tested compounds in dose-response were dispensed onto a white 384-well low volume plate (Greiner, 784075). DMSO was backfilled to all wells, resulting in a final DMSO content of 0.5%. Wells containing only DMSO served as background.
The plate was sealed with transparent film and shaken using a VibroTurbulator for 60 sec at level 3.
The plate was then spun down shortly (10 s, 1000 rcf) and incubated at 25° C. for 180 min.
The read-out was performed with plate reader (Pherastar, BMG Labtech) in time resolved fluorescence mode. Filterset: TR 337 665 620.
The results were analyzed as follows: • 1) an average of fluorescence for background signal was calculated and used as a negative control; • 2) raw fluorescence values for tested compounds were normalized against negative controls; • 3) saturation curve was fitted to specific binding with Hill slope model; • 4) EC50 and pEC50 values were determined.

Assay [3] deals with T1, [NEK7]-[compound of formula (I)]-[CRBN/DDB1] complex. Description: AlphaLISA dose response ternary complex formation assay. It counts as binding. To be noted: 1 μM compound; normalized to maximum signal of Compound 2 (positive control) and DMSO background; read-out: Normalized AlphaLISA ternary complex average signal at 1 μM molecule. On the procedure: The effect of the molecular glue compounds of the invention on the formation of a ternary complex composed of [NEK7]-[compound of formula (I)]-[CRBN/DDB1] was investigated with two methods: AlphaLISA dose response assay or HTRF ternary complex assay.
Two types of protein solution were prepared: • 200 nM biotinylated NEK7, 40 μg/ml AlphaScreen Streptavidin-coated Donor Beads in HBS (10 mM HEPES, 150 mM NaCL, pH 7.4) buffer with 0.1% Tween-20 and 1 mM DTT, • 200 nM 6×His-CRBN/Strep-DDB1, 40 μg/ml AlphaLISA Anti-6×His Acceptor beads in HBS buffer with 0.1% Tween-20 and 1 mM DTT.
The prepared solutions were incubated at room temperature for 30 min and then the solution containing the donor beads was mixed with the solution containing the acceptor beads.
The tested compounds were dispensed onto a white 384-well AlphaPlate 384 SW. DMSO was backfilled to all wells, resulting in a final DMSO content of 2%. Wells containing only DMSO served as background. Next, 10 μl of solution with donor and acceptor beads was added to the wells.
The plate was sealed with transparent film and shaken using a VibroTurbulator for 60 sec at room temperature, level 3. The plate was then spun down shortly (10 s, 1000 rcf, room temperature) and incubated at 25° C. for 30 min.
The read-out was performed with PerkinElmer Enspire Multimode Plate Reader (method for AlphaLISA 384-well low volume, Filterset: λexc=680 nm, λem=615 nm).
The results were analyzed as follows: • 1) an average of luminescence for background signal was calculated and used as a negative control; • 2) average of the maximum measured luminescence for Compound 2 was calculated and used as an internal positive control; • 3) raw luminescence values were normalized against positive and negative controls; • 4) Normalized responses to Compound 2 were determined.
(In general: In Alpha technology, singlet oxygen from a donor bead excites a nearby acceptor bead.)

The structures appear in SMILES notation. Bounds are passed on as bounds.

Sequence of NEK7-HiBiT protein (Q8TDX7 whole entry): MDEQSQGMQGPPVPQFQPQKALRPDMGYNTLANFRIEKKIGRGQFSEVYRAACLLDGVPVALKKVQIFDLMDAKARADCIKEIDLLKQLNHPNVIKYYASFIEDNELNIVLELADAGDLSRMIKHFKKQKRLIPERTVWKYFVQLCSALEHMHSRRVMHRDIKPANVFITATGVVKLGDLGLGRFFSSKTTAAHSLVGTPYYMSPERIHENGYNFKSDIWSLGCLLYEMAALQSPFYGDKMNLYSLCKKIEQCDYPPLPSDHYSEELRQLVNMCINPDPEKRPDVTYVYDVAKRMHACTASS
Sequence of NEK7-HiBiT protein (Q96SW2 whole entry, further chain): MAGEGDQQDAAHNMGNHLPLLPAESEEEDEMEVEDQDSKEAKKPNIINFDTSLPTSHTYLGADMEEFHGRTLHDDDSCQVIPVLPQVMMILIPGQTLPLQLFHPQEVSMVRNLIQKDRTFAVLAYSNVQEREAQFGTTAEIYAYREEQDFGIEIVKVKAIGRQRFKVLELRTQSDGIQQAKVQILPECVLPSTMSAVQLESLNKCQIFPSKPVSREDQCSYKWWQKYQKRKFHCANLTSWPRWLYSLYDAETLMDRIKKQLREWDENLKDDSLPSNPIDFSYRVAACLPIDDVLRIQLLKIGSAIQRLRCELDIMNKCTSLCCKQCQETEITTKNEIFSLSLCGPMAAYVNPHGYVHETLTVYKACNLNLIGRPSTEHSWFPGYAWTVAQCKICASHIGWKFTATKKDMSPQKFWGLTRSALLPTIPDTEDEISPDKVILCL
Sequence of NEK7-HiBiT protein (Q16531 whole entry partner): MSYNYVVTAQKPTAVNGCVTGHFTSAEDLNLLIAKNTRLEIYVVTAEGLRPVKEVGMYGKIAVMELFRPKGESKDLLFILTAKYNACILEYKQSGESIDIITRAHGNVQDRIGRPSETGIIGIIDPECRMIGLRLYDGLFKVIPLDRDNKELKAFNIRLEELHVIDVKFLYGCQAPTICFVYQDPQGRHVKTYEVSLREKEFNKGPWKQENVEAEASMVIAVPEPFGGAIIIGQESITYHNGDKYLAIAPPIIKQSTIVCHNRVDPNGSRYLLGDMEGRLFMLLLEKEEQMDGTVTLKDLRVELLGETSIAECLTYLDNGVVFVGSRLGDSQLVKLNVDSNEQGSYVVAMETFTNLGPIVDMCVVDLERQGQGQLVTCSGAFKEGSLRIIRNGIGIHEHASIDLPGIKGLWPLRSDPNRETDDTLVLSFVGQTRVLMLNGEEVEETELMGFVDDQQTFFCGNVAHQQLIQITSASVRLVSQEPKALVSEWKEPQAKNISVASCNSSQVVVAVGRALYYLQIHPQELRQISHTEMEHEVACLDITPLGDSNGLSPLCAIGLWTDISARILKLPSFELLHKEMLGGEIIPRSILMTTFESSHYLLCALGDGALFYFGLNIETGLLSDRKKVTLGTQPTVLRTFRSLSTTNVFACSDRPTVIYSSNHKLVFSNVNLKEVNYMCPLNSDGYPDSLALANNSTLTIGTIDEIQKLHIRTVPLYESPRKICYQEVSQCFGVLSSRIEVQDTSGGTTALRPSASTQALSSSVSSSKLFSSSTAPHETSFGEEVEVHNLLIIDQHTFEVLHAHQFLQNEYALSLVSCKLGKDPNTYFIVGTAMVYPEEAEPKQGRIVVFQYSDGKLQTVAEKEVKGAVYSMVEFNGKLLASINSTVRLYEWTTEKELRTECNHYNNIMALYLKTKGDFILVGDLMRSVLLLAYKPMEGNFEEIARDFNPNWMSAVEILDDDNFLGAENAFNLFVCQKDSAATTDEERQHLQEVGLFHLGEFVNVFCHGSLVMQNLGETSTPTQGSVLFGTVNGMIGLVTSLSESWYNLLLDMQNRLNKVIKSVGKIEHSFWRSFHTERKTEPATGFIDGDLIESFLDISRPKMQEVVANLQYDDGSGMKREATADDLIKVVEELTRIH
T1 sequence (Q8TDX7 whole entry): as the sequence (Q8TDX7 whole entry) above
T1 sequence (Q96SW2 whole entry): as the sequence (Q96SW2 whole entry, further chain) above
T1 sequence (Q16531 whole entry partner): as the sequence (Q16531 whole entry partner) above

Consider `O=C1CCC(N2C(=O)c3cccc4c(-c5ccccn5)ccc2c34)C(=O)N1` (stereo not drawn) [28(2), 3-(2-oxo-6-(pyridin-2-yl)benzo[cd]indol-1 (2H)-yl)piperidine-2,6-dione], for which the “Levels of NEK7-HiBiT Protein (as a % of DMSO control)” value (shortened to “Levels … (as a % of DMSO control)”) in assay [1] was “C (Levels of NEK7-HiBiT Protein > 50% and <75%)”. Also, the EC50 in assay [2] is above 3160 nM. Also, the activation at 1 µM in assay [3] was below 10%.

In the case of `O=C1CCCC(N2Cc3cc(-c4ccccn4)ccc3C2=O)C(=O)N1` (stereo not drawn) [29(2), 3-(1-oxo-5-(pyridin-2-yl)isoindolin-2-yl)azepane-2,7-dione], the “Levels … (as a % of DMSO control)” value in assay [1] is given as “D (Levels of NEK7-HiBiT Protein ≥ 75%)”. In addition, the EC50 in assay [2] is above 3160 nM. In addition, in assay [3], the activation at 1 µM is below 10%.

For `O=C1CCC(N2Cc3cc(-c4ccccn4)sc3C2=O)C(=O)N1` (stereo not drawn) [30(2), 3-(6-oxo-2-(pyridin-2-yl)-4,6-dihydro-5H-thieno[2,3-c]pyrrol-5-yl)piperidine-2,6-dione], the “Levels … (as a % of DMSO control)” value in assay [1] was “D (Levels of NEK7-HiBiT Protein ≥ 75%)”. Besides, the EC50 in assay [2] was above 3160 nM. For the same molecule, the activation at 1 µM in assay [3] is below 10%.

On to `O=C1CCC(N2Cc3c(csc3-c3ccccn3)C2=O)C(=O)N1` (stereo not drawn) [31(2), 3-(4-oxo-1-(pyridin-2-yl)-4H-thieno[3,4-c]pyrrol-5 (6H)-yl)piperidine-2,6-dione], for which, in assay [1], the “Levels … (as a % of DMSO control)” value is “D (Levels of NEK7-HiBiT Protein ≥ 75%)”. For the same molecule, the EC50 in assay [2] is above 3160 nM. The activation at 1 µM in assay [3] is below 10%.

For the molecule `O=C1CCC(N2C(=O)c3ccc(C4CCCCN4)cc3C2=O)C(=O)N1` (stereo not drawn) [Compound 1, 2-(2,6-dioxopiperidin-3-yl)-5-(piperidin-2-yl)isoindoline-1,3-dione], the “Levels … (as a % of DMSO control)” value in assay [1] is reported as “A (Levels of NEK7-HiBiT Protein ≤ 25%)”. In assay [2], the EC50 is 1000 to 3160 nM. In addition, in assay [3], the activation at 1 µM fell in the range of 20 to 80%.

With `O=C1CCC(N2Cc3cc(C4CCCN4)ccc3C2=O)C(=O)N1` (stereo not drawn) [Compound 6, 3-(1-oxo-5-(pyrrolidin-2-yl)isoindolin-2-yl)piperidine-2,6-dione], the “Levels … (as a % of DMSO control)” value in assay [1] is recorded as “A (Levels of NEK7-HiBiT Protein ≤ 25%)”. The EC50 in assay [2] was 316 to 1000 nM. Besides, in assay [3], the activation at 1 µM was in the range of 20 to 80%.

As to `O=C1CCC(N2Cc3cc([C@H]4CCCCN4)ccc3C2=O)C(=O)N1` (stereo partly drawn) [Compound 9, 3-(1-oxo-5-((R)-piperidin-2-yl)isoindolin-2-yl)piperidine-2,6-dione], the “Levels … (as a % of DMSO control)” value in assay [1] was “A (Levels of NEK7-HiBiT Protein ≤ 25%)”. Moreover, the EC50 in assay [2] is 316 to 1000 nM. The activation at 1 µM in assay [3] was above 80%.

`O=C1CCC(N2Cc3cc([C@@H]4CCCCN4)ccc3C2=O)C(=O)N1` (stereo partly drawn) [Compound 10, 3-(1-oxo-5-((S)-piperidin-2-yl)isoindolin-2-yl)piperidine-2,6-dione]: the “Levels … (as a % of DMSO control)” value in assay [1] is “C (Levels of NEK7-HiBiT Protein > 50% and <75%)”. Further, the EC50 in assay [2] is 316 to 1000 nM. Further, the activation at 1 µM in assay [3] lay in the range of 10 to 20%.

For the molecule `Cc1cc2c(cc1C1CCCCN1)CN(C1CCC(=O)NC1=O)C2=O` (stereo not drawn) [Compound 20, 3-(6-methyl-1-oxo-5-(piperidin-2-yl)isoindolin-2-yl)piperidine-2,6-dione], the “Levels … (as a % of DMSO control)” value in assay [1] was “D (Levels of NEK7-HiBiT Protein ≥ 75%)”. For the same molecule, the EC50 in assay [2] was above 3160 nM. Moreover, the activation at 1 µM in assay [3] is below 10%.

Turning to `Cc1cc(C2CCCCN2)cc2c1C(=O)N(C1CCC(=O)NC1=O)C2` (stereo not drawn) [Compound 21, 3-(7-methyl-1-oxo-5-(piperidin-2-yl)isoindolin-2-yl)piperidine-2,6-dione], the “Levels … (as a % of DMSO control)” value in assay [1] was “D (Levels of NEK7-HiBiT Protein ≥ 75%)”. Further, the EC50 in assay [2] was above 3160 nM. Besides, in assay [3], the activation at 1 µM is below 10%.

In the case of `O=C1CCC(N2Cc3c(ccc(C4CCCCN4)c3F)C2=O)C(=O)N1` (stereo not drawn) [Compound 22, 3-(4-fluoro-1-oxo-5-(piperidin-2-yl)isoindolin-2-yl)piperidine-2,6-dione], the “Levels … (as a % of DMSO control)” value in assay [1] is given as “A (Levels of NEK7-HiBiT Protein ≤ 25%)”. Besides, the EC50 in assay [2] is above 3160 nM. Moreover, the activation at 1 µM in assay [3] was below 10%.

With `O=C1CCC(N2Cc3cc(C4CCCCN4)cc(F)c3C2=O)C(=O)N1` (stereo not drawn) [Compound 24, 3-(7-fluoro-1-oxo-5-(piperidin-2-yl)isoindolin-2-yl)piperidine-2,6-dione], in assay [1], the “Levels … (as a % of DMSO control)” value is on record as “D (Levels of NEK7-HiBiT Protein ≥ 75%)”. In addition, the EC50 in assay [2] is above 3160 nM. Besides, the activation at 1 µM in assay [3] was below 10%.

For the molecule `O=C1CCC(N2Cc3cc(C4CCCC(=O)N4)ccc3C2=O)C(=O)N1` (stereo not drawn) [Compound 42, 3-(1-oxo-5-(6-oxopiperidin-2-yl)isoindolin-2-yl)piperidine-2,6-dione], in assay [1], the “Levels … (as a % of DMSO control)” value is on record as “D (Levels of NEK7-HiBiT Protein ≥ 75%)”. Moreover, the EC50 in assay [2] was above 3160 nM. In addition, in assay [3], the activation at 1 µM is below 10%.

In the case of `O=C1CCC(N2Cc3cc(C4CCC(NC(=O)c5ccccc5)CN4)ccc3C2=O)C(=O)N1` (stereo not drawn) [Compound 56, N-(6-(2-(2,6-dioxopiperidin-3-yl)-1-oxoisoindolin-5-yl)piperidin-3-yl)benzamide], the “Levels … (as a % of DMSO control)” value in assay [1] is “A (Levels of NEK7-HiBiT Protein ≤ 25%)”. Further, in assay [2], the EC50 was below 100 nM. Further, the activation at 1 µM in assay [3] was above 80%.

On to `O=C1CCC(N2Cc3cc(C4CSCCN4)ccc3C2=O)C(=O)N1` (stereo not drawn) [Compound 57, 3-(1-oxo-5-(thiomorpholin-3-yl)isoindolin-2-yl)piperidine-2,6-dione], for which the “Levels … (as a % of DMSO control)” value in assay [1] is “C (Levels of NEK7-HiBiT Protein > 50% and <75%)”. Further, in assay [2], the EC50 is 100 to 316 nM. The activation at 1 µM in assay [3] was in the range of 20 to 80%.
